Patent US20240157166A1, “ALTERNATING MAGNETIC FIELDS AND ANTIBIOTICS TO ERADICATE BIOFILM ON METAL IN A SYNERGISTIC FASHION” (priority 2021, published 2024)
Values after ≈ are worked out from the molar mass of the structure shown.

How the values were obtained:
S. aureus (UAMS1) = test: Minimum inhibitory concentration, S. aureus UAMS1; assay type: cell-based; conditions: Staphylococcus aureus; strain UAMS1
[1] = test system: S. aureus (UAMS1) biofilm; test: Biofilm CFU on stainless-steel rings, antibiotic with or without iAMF, UAMS1; assay type: cell-based; conditions: for CFU at 24 h, iAMF and antibiotic versus antibiotic alone: antibiotic 2 μg/mL, iAMF Tmax=65 °C, 15 min per dose at 0 and 12 h
Experimental: Biofilm preparation, treatment and quantification.
Doses were delivered at 0 and 12 hours and ring biofilm burden was quantified at various time points as above. For S. aureus experiments, biofilm of UAMS1 were prepared on stainless steel rings according to the culturing protocol and incubated with 2 μg/mL of ceftriaxone or 2 μg/mL of linezolid, in 10 mL TSB media. […] Doses were delivered at 0 and 12 hours and biofilm burden was quantified at 24 hours.

[2] = test system: P. aeruginosa (MB699) biofilm; test: Scanning electron microscopy of MB699 biofilm; assay type: cell-based; conditions: 64 μg/mL; for bacterial morphology by SEM, antibiotic alone: 12 h, no iAMF; for bacterial morphology by SEM, iAMF and antibiotic: 12 h post iAMF (Tmax=65 °C, Nexp=12)
Experimental: […]. The rings were carefully transferred to 4 mL PBS, rinsed in 4 mL of 0.1 M sodium cacodylate buffer three times and fixed for 24 h in 4 mL of 2% glutaraldehyde, 2% paraformaldehyde in 0.1 M sodium cacodylate buffer. After rinsing in 4 mL of cacodylate buffer three times, the samples were re-fixed in 4 mL of 2% osmium in 0.1 M sodium cacodylate buffer for 2 h. Then the rings were further rinsed with 4 mL of deionized water five times and dehydrated at room temperature in five steps by placing the rings in 4 mL of 50, 70 (twice), 85, 95 (twice) and 100% ethanol respectively for 5 min per solution. The rings were then transferred to 4 mL of 25, 50, 75 and 100% (twice) hexamethyldisilazane (HMDS) in ethanol consecutively for 15 min each. Finally, the samples were left to dry for 24 h in a fume hood. The specimens were mounted on aluminum stubs, gold/palladium sputter coated, and examined using a Zeiss Sigma VP scanning electron microscope. The images were acquired at 10 kV with magnification of approximately 35000×.

GFP-PAO1 biofilms = test: Laser scanning confocal microscopy of GFP-PAO1 biofilm; conditions: 0.5 μg/mL
Source text: After staining, rings were mounted on a 50 mm glass bottom plate and images were captured with a Zeiss LSM880 Airyscan laser confocal microscope. The GFP-PA01 bacteria and ConA-stained EPS were imaged using a 40× objective lens. Multiple regions of the ring surface were randomly selected, and Z-stacks were acquired with slice step size of 0.5 μm. Before image processing, the z-stacks were deconvolved using Autoquant×3 (Media Cybernetics, MD, USA) to improve the image resolution in X, Y and Z directions. The deconvolved images were analyzed with Imaris x64 9.1.2 (Bitplane AG, Zurich, Switzerland).

[3] = test system: MDR P. aeruginosa (MB699) biofilm; test: Biofilm CFU on rings, antibiotic with or without iAMF, MDR strain MB699; conditions: for CFU reduction with iAMF at other antibiotic concentrations: meropenem sub-MIC 32 μg/mL, ciprofloxacin increased concentration (128 μg/ml), 48 h
[4] = test system: MDR P. aeruginosa (MB699); test: microbe, parasite or virus in culture; conditions: Pseudomonas aeruginosa, read-out: minimum inhibitory concentration (MIC)

Compound | MIC (S. aureus (UAMS1)) | CFU at 24 h, iAMF and antibiotic versus antibiotic alone [1] | bacterial morphology by SEM, antibiotic alone [2] | bacterial morphology by SEM, iAMF and antibiotic [2] | CFU reduction with iAMF at other antibiotic concentrations [3] | also measured
CO/N=C(\C(=O)N[C@@H]1C(=O)N2C(C(=O)O)=C(CSc3nc(=O)c(=O)[nH]n3C)CS[C@H]12)c1csc(N)n1 [ceftriaxone] | 2 µg/mL (≈ 3.61 µM) | significantly lower CFU |  |  |  | CFU after 24 h ([1]; 2 μg/mL ceftriaxone in combination with iAMF (doses at 0 and 12 h)): approaching the limit of detection; CFU reduction after 24 h ([1]; ceftriaxone alone, 2 μg/mL): ~2 log; initial decrease of biofilm CFU ([1]; iAMF (Tmax=65 °C, 15 min dose) and 2 μg/mL ceftriaxone, after first dose): over 3 logs
O=C(O)c1cn(C2CC2)c2cc(N3CCNCC3)c(F)cc2c1=O [ciprofloxacin] |  |  | no obvious morphological changes | slight lengthening of bacteria and increased wrinkling of the membrane | did not lead to enhanced CFU decreases | bacterial morphology by confocal microscopy, ciprofloxacin only (GFP-PAO1 biofilms; 12 h post-treatment): slight elongation; EPS staining and morphology by confocal microscopy, iAMF and ciprofloxacin (GFP-PAO1 biofilms; iAMF Tmax=65 °C, Nexp=12, 12 h): less dense EPS staining; bacterial burden (CFU) at 48 h with iAMF and antibiotic [3]: did not result in a further reduction of CFU
CC(=O)NC[C@H]1CN(c2ccc(N3CCOCC3)c(F)c2)C(=O)O1 [linezolid] | 2 µg/mL (≈ 5.93 µM) | significantly lower CFU |  |  |  | magnitude of biofilm reduction, 7-day versus 2-day biofilm ([1]; iAMF (Tmax=65 °C, 15 min per dose) and 2 μg mL-1 linezolid): no significant difference
C[C@@H](O)[C@H]1C(=O)N2C(C(=O)O)=C(S[C@@H]3CN[C@H](C(=O)N(C)C)C3)[C@H](C)[C@H]12 [meropenem] |  |  | no obvious morphological changes | fragmented and deformed bacterial cells | also seen | MIC [4]: 64 µg/mL (≈ 167 µM); interaction of iAMF and antibiotic in MDR strain ([3]; strain with oprD porin and DNA gyrase mutations): synergistic effect
